Experimental findings from patent US20080200477A1, “Retinoid-Containing Compositions Having Reduced Irritation Effect” (priority 2004, published 2008) are described below.

In one test the test system is interleukin-8 (IL8). The test is described as follows: Retinol-induced interleukin-8 release from reconstituted epidermis (ELISA on culture medium). The settings on record: for % reduction of IL8 release Control + retinol: measured after 48 hours and 96 hours (time not given). The class given is cell-based, human. The method, then: Samples of reconstituted epidermis were topically applied with gel/emulsions containing retinol (0.075 wt. %) and a series of test ingredients. The release of interleukin-8 (IL8) was measured in the culture medium after 48 hours by an ELISA method. No significant loss of viability was evidenced. No release of interleukin-1 (IL1) was observed.
Samples of reconstituted epidermis were topically applied with gel/emulsions containing retinol (0.075 wt. %) and one of the following test ingredients: Dragocalm® (at 1.5 wt. % and 3.5 wt. %), dipotassium glycyrrhenzinate (at 0.5 wt. %), Rona Care® ectoine (at 0.1 wt. %, 0.25 wt. %), and a willow herb (0.1 wt. %)/oat straw (0.1 wt. %) extract combination. The release of IL8 was measured in each culture medium after 48 hours and 96 hours by an ELISA method. No significant loss of viability was evidenced. No release of IL1 was observed.

Test [1] deals with retinol induced skin redness. The test is described as follows: Repeated patch test on backs of human volunteers, cumulated redness score. It counts as in vivo. The following applies: for inhibition of retinol-induced redness (in words): concentration not given, retinol 0.1 wt. %, human volunteers; for Score (cumulated redness score): 48 hours patches, three times a week during three weeks. The method, then:
Based on the foregoing results, Dragocalm®, ectoine, and dipotassium glycyrrhenzinate were tested further on human volunteers for their potential to reduce retinol induced skin redness. Patches containing formulas comprising either retinol (0.1 wt. %) or retinol (0.1 wt. %) plus the test ingredient Dragocalm®, ectoine, or dipotassium glycyrrhenzinate were applied during 48 hours to the backs of volunteers three times a week during three weeks. Redness induced by the patches was examined and scored after each patch removal. Every individual score for each product were cumulated to give the final scores.

The mark [2] stands for this setting: retinol 0.1 wt. % + test ingredient 0.25 wt. %.
The mark [3] stands for this setting: retinol 0.1 wt. % + test ingredient 0.5 wt. %.

For `CC1=NC(C(=O)O)CCN1` (centres unmarked) [Rona Care ® Ectoin, 1,4,5,6-tetrahydro-2-methyl-4-pyrimidine carboxylic acid], in the test on interleukin-8 (IL8) (Example 1, 1 wt. %, retinol 0.075 wt. %, 48 hours), the “decrease of retinol induced IL8 release” value was determined as 55%. In addition, in the test with interleukin-8 (IL8) (Example 1, test ingredient 1 wt. % in gel/emulsion with retinol 0.075 wt. %, 48 hours), the “% Reduction of Interleukin-8 compared with Control + Retinol” value (“% Reduction … with Control + Retinol” for short) is given as −55%. Moreover, in the test on interleukin-8 (IL8) (Example 2, 0.1 wt. %, retinol 0.075 wt. %), the “activity on IL8 release (in words)” value is on record as “no activity”. Besides, the “reduction (inhibition) of IL8 release” value in the test on interleukin-8 (IL8) (Example 2, 0.25 wt. %, retinol 0.075 wt. %) is 60%. Moreover, the “% reduction of IL8 release Control + retinol” value in the test on interleukin-8 (IL8) (Example 2, test ingredient 0.1 wt. %, retinol 0.075 wt. %) was −31%. Further, the “% reduction of IL8 release Control + retinol” value with interleukin-8 (IL8) (Example 2, test ingredient 0.25 wt. %, retinol 0.075 wt. %) was −60%. Besides, the “inhibition of retinol-induced redness (in words)” value in test [1] is “reduced redness but to a lesser extent”. Besides, in test [1] (setting [2]), the “% reduction (of redness score vs Control + Retinol 0.1 wt. %)” value is recorded as −56% and the “Score (cumulated redness score)” value stood at 9.5.

With “Dipotassium Glycirrhezinate [reference compound]”, in the test on interleukin-8 (IL8) (Example 1, test ingredient 0.2 wt. % in gel/emulsion with retinol 0.075 wt. %, 48 hours), the “% Reduction … with Control + Retinol” value was −29%. The “reduction (inhibition) of IL8 release” value in the test with interleukin-8 (IL8) (Example 2, 0.5 wt. %, retinol 0.075 wt. %) turned out to be 63%. The “% reduction of IL8 release Control + retinol” value in the test with interleukin-8 (IL8) (Example 2, test ingredient 0.5 wt. %, retinol 0.075 wt. %) is listed as −63%. In addition, the “inhibition of retinol-induced redness (in words)” value in test [1] is given as “not effective”. In addition, in test [1] (setting [3]), the “% reduction (of redness score vs Control + Retinol 0.1 wt. %)” value is given as −21% and the “Score (cumulated redness score)” value amounted to 17.

In the case of `CCCCCCCCCCCCCCCCCCOC(=O)[C@@]1(C)CC[C@]2(C)CC[C@]3(C)C(=CC(=O)[C@@H]4[C@@]5(C)CC[C@H](O)C(C)(C)[C@@H]5CC[C@]43C)[C@@H]2C1` [Stearyl Glycirrhezinate, reference compound], in the test on interleukin-8 (IL8) (Example 1, test ingredient 0.1 wt. % in gel/emulsion with retinol 0.075 wt. %, 48 hours), the “% Reduction … with Control + Retinol” value is listed as 26%.

`CC(C)=CCC[C@](C)(O)[C@@H]1CC=C(C)CC1` [Alpha Bisabolol, reference compound]: the “% Reduction … with Control + Retinol” value with interleukin-8 (IL8) (Example 1, test ingredient 0.05 wt. % in gel/emulsion with retinol 0.075 wt. %, 48 hours) is reported as −4%.
